Experimental findings from ChEMBL document CHEMBL5291721, “A preclinical secondary pharmacology resource illuminates target-adverse drug reaction associations of marketed drugs” (Nat Commun, 2023) are described below.

The target of experiment [1] is T1, Prostaglandin G/H synthase 1 (Rattus norvegicus, UniProt Q63921).
T1 sequence (Q63921 whole entry): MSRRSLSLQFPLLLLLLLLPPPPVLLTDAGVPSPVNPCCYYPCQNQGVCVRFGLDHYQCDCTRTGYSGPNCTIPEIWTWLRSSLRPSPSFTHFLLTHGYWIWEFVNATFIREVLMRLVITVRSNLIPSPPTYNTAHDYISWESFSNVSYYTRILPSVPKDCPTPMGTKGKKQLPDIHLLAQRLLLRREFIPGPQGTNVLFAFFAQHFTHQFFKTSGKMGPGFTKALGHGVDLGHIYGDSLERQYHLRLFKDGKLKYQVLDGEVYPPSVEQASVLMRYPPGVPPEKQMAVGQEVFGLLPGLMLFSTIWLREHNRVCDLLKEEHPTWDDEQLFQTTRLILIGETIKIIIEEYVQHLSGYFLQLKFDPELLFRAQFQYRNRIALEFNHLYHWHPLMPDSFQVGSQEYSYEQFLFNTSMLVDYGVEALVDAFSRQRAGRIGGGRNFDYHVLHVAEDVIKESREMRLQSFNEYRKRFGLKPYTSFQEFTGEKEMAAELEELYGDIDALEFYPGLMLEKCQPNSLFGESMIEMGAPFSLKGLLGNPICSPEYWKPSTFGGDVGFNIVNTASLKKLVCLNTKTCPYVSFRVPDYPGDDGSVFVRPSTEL
It counts as functional.

For experiment [2], the target named is T2, Muscarinic acetylcholine receptor M2 (Homo sapiens, UniProt P08172).
T2 sequence (P08172 whole entry): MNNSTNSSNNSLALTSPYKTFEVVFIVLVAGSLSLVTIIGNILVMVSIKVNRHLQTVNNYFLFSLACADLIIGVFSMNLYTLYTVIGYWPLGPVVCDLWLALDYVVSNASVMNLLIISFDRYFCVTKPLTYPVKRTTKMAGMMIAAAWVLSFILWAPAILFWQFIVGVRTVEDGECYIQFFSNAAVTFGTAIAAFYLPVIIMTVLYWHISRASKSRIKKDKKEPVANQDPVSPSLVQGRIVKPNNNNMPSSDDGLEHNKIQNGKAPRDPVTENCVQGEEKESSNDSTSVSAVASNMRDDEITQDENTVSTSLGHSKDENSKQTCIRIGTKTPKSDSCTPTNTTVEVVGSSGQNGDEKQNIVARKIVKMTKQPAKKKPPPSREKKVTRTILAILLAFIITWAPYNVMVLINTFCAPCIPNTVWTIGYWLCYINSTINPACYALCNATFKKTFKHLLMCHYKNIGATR
It counts as functional, cell-based.

Experiment [3] addresses Vasopressin V2 receptor (Homo sapiens, UniProt P30518).
Experiment [4] addresses Beta-2 adrenergic receptor (Homo sapiens, UniProt P07550).
Experiment [5] addresses T3, Alpha-2A adrenergic receptor (Homo sapiens, UniProt P08913).
T3 sequence (P08913 whole entry): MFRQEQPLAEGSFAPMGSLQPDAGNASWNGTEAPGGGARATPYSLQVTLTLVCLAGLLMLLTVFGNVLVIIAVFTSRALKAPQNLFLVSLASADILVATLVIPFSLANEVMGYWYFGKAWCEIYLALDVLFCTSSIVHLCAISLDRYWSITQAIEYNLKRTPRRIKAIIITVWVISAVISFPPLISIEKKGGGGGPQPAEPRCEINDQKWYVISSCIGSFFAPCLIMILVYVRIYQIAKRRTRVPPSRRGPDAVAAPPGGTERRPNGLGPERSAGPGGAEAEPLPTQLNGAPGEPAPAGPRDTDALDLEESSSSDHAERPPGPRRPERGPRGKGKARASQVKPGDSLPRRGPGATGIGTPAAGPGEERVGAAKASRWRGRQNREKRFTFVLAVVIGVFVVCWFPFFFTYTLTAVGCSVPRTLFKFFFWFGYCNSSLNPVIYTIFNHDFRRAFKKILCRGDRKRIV
It counts as functional, cell-based.

Experiment [6] deals with 5-hydroxytryptamine receptor 2B (Homo sapiens, UniProt P41595). It counts as functional, cell-based.
Chain of 5-hydroxytryptamine receptor 2B (P41595 whole entry): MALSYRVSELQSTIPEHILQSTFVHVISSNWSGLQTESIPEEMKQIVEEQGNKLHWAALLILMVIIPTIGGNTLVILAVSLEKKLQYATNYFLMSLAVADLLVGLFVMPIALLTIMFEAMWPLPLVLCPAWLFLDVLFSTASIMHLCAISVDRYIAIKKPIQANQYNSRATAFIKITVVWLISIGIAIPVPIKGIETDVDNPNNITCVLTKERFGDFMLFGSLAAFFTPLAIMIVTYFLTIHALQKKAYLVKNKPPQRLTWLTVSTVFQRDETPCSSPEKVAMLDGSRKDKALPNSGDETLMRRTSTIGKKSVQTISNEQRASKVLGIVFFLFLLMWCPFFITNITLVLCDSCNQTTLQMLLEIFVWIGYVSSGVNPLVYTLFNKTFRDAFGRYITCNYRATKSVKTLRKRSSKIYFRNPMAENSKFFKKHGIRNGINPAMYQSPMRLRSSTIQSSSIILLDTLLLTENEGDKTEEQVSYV
Experiment [7] addresses Gamma-aminobutyric acid receptor subunit alpha-1 (Rattus norvegicus, UniProt P62813).
In experiment [8] the target is T4, Equilibrative nucleoside transporter 1 (Homo sapiens, UniProt Q99808).
T4 sequence (Q99808 whole entry): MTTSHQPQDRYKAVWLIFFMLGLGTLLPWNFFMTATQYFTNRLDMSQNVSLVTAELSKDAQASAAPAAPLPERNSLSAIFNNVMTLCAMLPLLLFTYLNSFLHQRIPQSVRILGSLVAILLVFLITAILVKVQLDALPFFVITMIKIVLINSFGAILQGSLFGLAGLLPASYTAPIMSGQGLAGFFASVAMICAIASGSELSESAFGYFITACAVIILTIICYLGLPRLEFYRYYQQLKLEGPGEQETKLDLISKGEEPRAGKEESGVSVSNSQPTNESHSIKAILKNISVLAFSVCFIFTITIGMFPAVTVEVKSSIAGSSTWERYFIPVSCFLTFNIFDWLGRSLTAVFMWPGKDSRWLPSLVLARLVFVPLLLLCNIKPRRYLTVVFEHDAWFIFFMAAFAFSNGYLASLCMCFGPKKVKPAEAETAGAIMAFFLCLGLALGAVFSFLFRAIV

Experiment [9] has as its target Sodium-dependent serotonin transporter (Homo sapiens, UniProt P31645).
In experiment [10] the target is T2, Muscarinic acetylcholine receptor M2. Type of experiment: functional, cell-based. The source holds these as a separate data set.
Experiment [11] has as its target 5-hydroxytryptamine receptor 2A (Homo sapiens, UniProt P28223). It counts as functional, cell-based.
In experiment [12] the target is T5, B2 bradykinin receptor (Homo sapiens, UniProt P30411).
T5 sequence (P30411 whole entry): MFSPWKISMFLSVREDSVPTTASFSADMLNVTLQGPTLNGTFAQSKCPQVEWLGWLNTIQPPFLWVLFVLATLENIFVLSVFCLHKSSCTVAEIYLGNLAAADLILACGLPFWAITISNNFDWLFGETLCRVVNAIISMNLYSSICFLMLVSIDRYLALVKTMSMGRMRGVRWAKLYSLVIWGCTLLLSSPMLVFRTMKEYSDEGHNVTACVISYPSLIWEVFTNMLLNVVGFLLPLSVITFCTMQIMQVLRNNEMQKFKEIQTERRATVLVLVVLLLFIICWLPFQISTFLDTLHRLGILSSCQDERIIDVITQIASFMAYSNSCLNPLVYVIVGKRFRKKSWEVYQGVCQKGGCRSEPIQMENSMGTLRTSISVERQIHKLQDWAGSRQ

The target of experiment [13] is Adenosine receptor A2a (Homo sapiens, UniProt P29274).
Chain of Adenosine receptor A2a (P29274 whole entry): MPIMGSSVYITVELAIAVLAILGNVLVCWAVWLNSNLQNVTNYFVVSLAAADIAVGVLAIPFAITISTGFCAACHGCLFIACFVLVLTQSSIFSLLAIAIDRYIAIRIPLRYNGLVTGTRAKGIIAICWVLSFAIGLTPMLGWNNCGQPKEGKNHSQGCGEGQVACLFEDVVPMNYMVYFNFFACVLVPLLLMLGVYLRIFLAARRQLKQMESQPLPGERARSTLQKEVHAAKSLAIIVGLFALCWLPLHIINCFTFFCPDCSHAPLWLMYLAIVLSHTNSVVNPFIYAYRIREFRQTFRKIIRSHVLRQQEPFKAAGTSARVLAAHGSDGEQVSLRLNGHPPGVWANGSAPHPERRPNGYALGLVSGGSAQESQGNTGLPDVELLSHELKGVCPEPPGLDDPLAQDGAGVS
For experiment [14], the target named is Histamine H1 receptor (Homo sapiens, UniProt P35367).
Chain of Histamine H1 receptor (P35367 whole entry): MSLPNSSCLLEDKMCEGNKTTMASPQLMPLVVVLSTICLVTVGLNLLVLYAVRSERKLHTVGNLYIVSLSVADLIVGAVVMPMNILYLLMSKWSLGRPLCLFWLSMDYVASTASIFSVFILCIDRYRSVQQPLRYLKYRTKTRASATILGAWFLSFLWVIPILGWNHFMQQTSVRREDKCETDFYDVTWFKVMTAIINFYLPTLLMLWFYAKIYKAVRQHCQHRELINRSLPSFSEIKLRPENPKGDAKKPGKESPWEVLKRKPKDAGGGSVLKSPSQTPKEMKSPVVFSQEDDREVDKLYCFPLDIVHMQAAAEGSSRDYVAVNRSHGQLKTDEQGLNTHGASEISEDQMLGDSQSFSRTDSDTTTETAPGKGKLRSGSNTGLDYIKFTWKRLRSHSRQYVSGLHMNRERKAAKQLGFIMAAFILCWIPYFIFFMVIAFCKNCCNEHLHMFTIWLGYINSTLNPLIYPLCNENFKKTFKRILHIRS

The structures appear in SMILES notation.
Also: assay procedure not described here.

Chain of Sodium-dependent serotonin transporter (P31645 whole entry): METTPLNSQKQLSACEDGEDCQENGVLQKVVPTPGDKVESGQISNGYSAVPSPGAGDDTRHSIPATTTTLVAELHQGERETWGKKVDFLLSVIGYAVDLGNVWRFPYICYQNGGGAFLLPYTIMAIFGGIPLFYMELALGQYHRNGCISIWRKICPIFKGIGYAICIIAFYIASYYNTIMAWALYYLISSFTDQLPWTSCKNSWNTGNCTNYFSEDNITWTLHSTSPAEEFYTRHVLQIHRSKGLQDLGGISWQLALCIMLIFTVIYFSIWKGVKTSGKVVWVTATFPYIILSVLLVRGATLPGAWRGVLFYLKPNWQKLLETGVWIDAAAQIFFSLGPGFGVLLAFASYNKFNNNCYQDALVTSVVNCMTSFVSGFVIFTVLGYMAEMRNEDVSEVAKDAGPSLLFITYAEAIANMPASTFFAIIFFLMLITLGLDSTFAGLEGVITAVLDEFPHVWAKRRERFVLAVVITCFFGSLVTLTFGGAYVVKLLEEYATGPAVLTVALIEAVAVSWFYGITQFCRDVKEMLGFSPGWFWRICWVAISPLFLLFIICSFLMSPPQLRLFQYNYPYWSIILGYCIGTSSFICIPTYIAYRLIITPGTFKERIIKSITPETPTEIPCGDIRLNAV
Chain of Vasopressin V2 receptor (P30518 whole entry): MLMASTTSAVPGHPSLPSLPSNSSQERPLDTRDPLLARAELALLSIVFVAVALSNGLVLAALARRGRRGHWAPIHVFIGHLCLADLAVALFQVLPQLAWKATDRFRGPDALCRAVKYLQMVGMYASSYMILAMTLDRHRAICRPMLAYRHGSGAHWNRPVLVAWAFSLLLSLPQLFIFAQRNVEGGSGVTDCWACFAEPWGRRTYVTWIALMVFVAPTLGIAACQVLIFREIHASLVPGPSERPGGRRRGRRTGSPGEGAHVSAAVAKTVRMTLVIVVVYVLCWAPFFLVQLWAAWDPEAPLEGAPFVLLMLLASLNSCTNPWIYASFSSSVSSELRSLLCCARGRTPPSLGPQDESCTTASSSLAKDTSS
Chain of Beta-2 adrenergic receptor (P07550 whole entry): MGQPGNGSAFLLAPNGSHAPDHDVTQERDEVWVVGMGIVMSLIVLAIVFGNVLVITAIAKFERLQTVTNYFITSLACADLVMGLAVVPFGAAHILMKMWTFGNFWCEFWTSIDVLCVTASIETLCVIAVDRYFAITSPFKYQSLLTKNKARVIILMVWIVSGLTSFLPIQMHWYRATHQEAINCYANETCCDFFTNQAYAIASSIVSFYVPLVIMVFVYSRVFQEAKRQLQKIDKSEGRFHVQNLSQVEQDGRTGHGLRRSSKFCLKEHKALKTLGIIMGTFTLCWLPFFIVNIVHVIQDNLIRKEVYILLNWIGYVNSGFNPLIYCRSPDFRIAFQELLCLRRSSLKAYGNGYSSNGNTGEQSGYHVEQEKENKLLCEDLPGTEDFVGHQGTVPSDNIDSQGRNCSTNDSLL
Chain of Gamma-aminobutyric acid receptor subunit alpha-1 (P62813 whole entry): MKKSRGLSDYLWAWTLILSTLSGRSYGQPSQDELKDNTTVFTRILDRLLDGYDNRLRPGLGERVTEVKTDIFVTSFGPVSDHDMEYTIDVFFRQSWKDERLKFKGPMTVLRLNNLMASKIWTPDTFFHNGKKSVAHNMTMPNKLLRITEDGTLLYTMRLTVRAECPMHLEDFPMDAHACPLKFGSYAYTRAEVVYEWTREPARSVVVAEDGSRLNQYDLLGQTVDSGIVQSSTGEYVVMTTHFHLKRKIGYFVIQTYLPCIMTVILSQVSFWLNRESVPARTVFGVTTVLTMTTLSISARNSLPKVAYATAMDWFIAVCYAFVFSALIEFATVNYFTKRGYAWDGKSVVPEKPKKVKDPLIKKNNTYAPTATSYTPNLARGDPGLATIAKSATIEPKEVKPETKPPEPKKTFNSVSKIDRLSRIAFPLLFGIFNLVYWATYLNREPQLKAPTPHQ
Chain of 5-hydroxytryptamine receptor 2A (P28223 whole entry): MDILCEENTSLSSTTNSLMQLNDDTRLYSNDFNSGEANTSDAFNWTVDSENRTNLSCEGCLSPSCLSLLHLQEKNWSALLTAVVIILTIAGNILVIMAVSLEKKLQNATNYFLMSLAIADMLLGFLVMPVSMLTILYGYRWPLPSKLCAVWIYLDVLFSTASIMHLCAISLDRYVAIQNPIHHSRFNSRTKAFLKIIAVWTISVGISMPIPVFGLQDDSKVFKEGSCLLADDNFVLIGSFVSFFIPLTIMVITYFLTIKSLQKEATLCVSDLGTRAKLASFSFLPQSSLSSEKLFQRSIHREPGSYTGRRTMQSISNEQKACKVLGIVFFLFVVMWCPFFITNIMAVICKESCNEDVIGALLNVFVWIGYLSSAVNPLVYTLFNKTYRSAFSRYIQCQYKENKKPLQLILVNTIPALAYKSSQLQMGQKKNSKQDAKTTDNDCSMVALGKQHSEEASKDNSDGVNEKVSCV

In general, AC50 refers to the concentration giving half of the maximal activity seen. With `O=C(CCCCC(=O)Nc1c(I)cc(I)c(C(=O)O)c1I)Nc1c(I)cc(I)c(C(=O)O)c1I` [IODIPAMIDE], the half-maximal activity concentration (AC50) in experiment [1], in experiment [2], in experiment [3], in experiment [4], in [5] and in experiment [6] was > 10 µM in each case. For the same compound, the AC50 in experiment [7], in [8], in experiment [9], in experiment [10], in [11] and in experiment [12] was > 10 µM each time. The AC50 in [13] and in [14] was > 10 µM each time.
Take `CC(C)[N+](C)(CCC(C(N)=O)(c1ccccc1)c1ccccc1)C(C)C` [ISOPROPAMIDE]: the AC50 in [1] is > 10 µM; in experiment [2] it was 0.01 µM; in experiment [3] it was > 10 µM; in [4], > 10 µM; in experiment [5], > 10 µM; in experiment [6], > 10 µM. Further, the AC50 in experiment [7], in [8], in experiment [9], in experiment [10], in [11] and in [12] was > 10 µM in each case. The AC50 in [13] and in experiment [14] was > 10 µM in each case.
Turning to `COC(=O)C1=C(C)NC(C)=C(C(=O)OC(C)C)C1c1cccc2nonc12` (stereo unspecified) [ISRADIPINE], the AC50 is > 30 µM in experiment [1]; > 10 µM in [2]; > 30 µM in experiment [3]; > 10 µM in [4]; > 10 µM in experiment [5]; > 10 µM in experiment [6]. Moreover, the concentration at half-maximal activity (AC50) in experiment [7] was > 10 µM; in experiment [8] it was > 30 µM; in experiment [9], > 30 µM; in experiment [10], > 10 µM; in experiment [11], > 10 µM; in experiment [12] it was > 30 µM. Moreover, the concentration at half-maximal activity (AC50) in experiment [13] and in experiment [14] was > 30 µM throughout.
Consider `COc1ccc(C(=O)NCc2ccc(OCCN(C)C)cc2)cc1OC` [ITOPRIDE], for which the AC50 in experiment [1] was > 10 µM; in [2], > 30 µM; in experiment [3], > 30 µM; in [4], > 30 µM; in experiment [5], > 30 µM; in experiment [6], > 30 µM. For the same compound, the AC50 in experiment [7], in experiment [8], in experiment [9], in [10], in experiment [11] and in experiment [12] was > 30 µM in each case. Besides, the AC50 in experiment [13] and in experiment [14] was > 30 µM throughout.
With `CN1CC[C@]23CCCC[C@H]2[C@H]1Cc1ccc(O)cc13` [LEVORPHANOL], the AC50 in [1], in [2], in experiment [3], in experiment [4], in experiment [5] and in experiment [6] was > 10 µM in each case. Besides, the AC50 in [7] was > 10 µM; in experiment [8] it was > 30 µM; in experiment [9], 0.173 µM; in experiment [10], > 10 µM; in experiment [11] it was > 10 µM; in experiment [12], > 10 µM. Moreover, the AC50 in experiment [13] was > 10 µM; in experiment [14] it was > 30 µM.
`O=C(O)Cc1cn(-c2ccccc2)nc1-c1ccc(Cl)cc1` [LONAZOLAC]: the AC50 in experiment [1] was 19 µM; in [2] it was > 30 µM; in experiment [3] it was > 30 µM; in experiment [4] it was > 30 µM; in experiment [5] it was > 30 µM; in experiment [6], > 30 µM. Also, the AC50 in experiment [7], in [8], in experiment [9], in [10], in experiment [11] and in experiment [12] was > 30 µM throughout. Further, the AC50 in experiment [13] and in [14] was > 30 µM each time.
`C#C[C@]1(O)CC[C@H]2[C@@H]3CCC4=CCCC[C@@H]4[C@H]3CC[C@@]21C` [LYNESTRENOL]: the AC50 in [1], in [2], in experiment [3], in experiment [4], in [5] and in experiment [6] was > 30 µM in each case. In addition, the concentration at half-maximal activity (AC50) in [7], in experiment [8], in [9], in experiment [10], in experiment [11] and in experiment [12] was > 30 µM throughout. Further, the AC50 in experiment [13] and in experiment [14] was > 30 µM each time.
`CC1=CC(=O)c2ccccc2C1=O` [MENADIONE]: the AC50 in [1], in [2], in [3], in experiment [4], in experiment [5] and in experiment [6] was > 10 µM in each case. In addition, the AC50 in experiment [7], in [8], in experiment [9], in experiment [10], in [11] and in [12] was > 10 µM throughout. The AC50 in experiment [13] and in experiment [14] was > 30 µM in each case.
In the case of `Cc1cc(-c2ccccc2)nnc1NCCN1CCOCC1` [MINAPRINE], the AC50 in [1] was > 30 µM; in [2] it was > 10 µM; in [3], > 30 µM; in experiment [4], > 10 µM; in experiment [5], > 10 µM; in experiment [6] it was > 10 µM. The half-maximal activity concentration (AC50) in experiment [7] was > 10 µM; in experiment [8], > 30 µM; in [9] it was > 10 µM; in experiment [10], > 10 µM; in experiment [11], > 30 µM; in [12], > 30 µM. Moreover, the AC50 in [13] was > 30 µM; in experiment [14], > 10 µM.
